In patent US8278337B2, “Substituted pyridines that are JNK inhibitors” (Merck Sharp & Dohme, priority 2006, dated 2012):
pIC50: −log10 of the molar value. Several values for one entry are separate records, joined by “and”; a condition that tells them apart may be missing. Equal entries are not always repeated. Where two headings read alike, the source gives them in different places.

Molecular target: JNK1 (Homo sapiens, UniProt P45983)
Test: DELFIA kinase assay, JNK1
Assay type: biochemical
Method: Assay DELFIA (Dissociation Enhanced Lanthanide Fluorescence Immuno-Assay) Assay:
Before initiation of kinase reactions, compounds were pre-incubated with the enzyme for 10 minutes. Pre-incubation reactions contained 50 mM HEPES pH 7.3, 10 mM MgCl2, 1 mM DTT, 75 mM NaCl, 1 mM EDTA, 1 mM EGTA, 0.01% CHAPS, 2 nM JNK1, 6 ug/mL biotinylated GST-ATF2, 0.1 mg/ml BSA, 5% DMSO and 0-100 μM compound in a total volume of 40 μL. After a 10 minute room temperature pre-incubation, 10 μL of 35 μM ATP was added to start the reaction (final concentration of ATP=7 uM). Reactions were incubated at room temperature for 30 minutes. A small aliquot (10 uL) was taken and quenched by adding into 190 uL of DELFIA Assay buffer containing 100 mM EDTA. The amount of phosphate transferred to biotinylated GST-ATF2 was measured using the Dissociation Enhanced Lanthanide Fluorescence Immuno-assay (DELFIA) from Perkin Elmer according to manufacturers protocol. Briefly, biotinylated GST-ATF2 was captured on streptavidin coated plates for 1 hour, washed twice, then incubated for 1 hour with a 1:1000 dilution of rabbit-anti-phospho-ATF2 antibody and a 1:3500 dilution of Europium-labeled anti-rabbit secondary antibody. Free antibody was removed with six washes, Europium was dissociated from the antibody, and Europium fluorescence was measured using an excitation wavelength of 340 nm and an emission wavelength of 615 nm. JNK2 and JNK3 kinase reactions were carried out similarly, with the exception that the final concentration of ATP was 4 uM and 2 uM, respectively.

[1] = DELFIA, biotinylated GST-ATF2 substrate, 10 minute pre-incubation, final ATP 7 uM
[2] = DELFIA assay, 2 nM JNK1, 7 uM ATP, 10 min pre-incubation, second table, read-out: JNK 1 IC50

JNK1, sequence (P45983 whole entry, species assumed): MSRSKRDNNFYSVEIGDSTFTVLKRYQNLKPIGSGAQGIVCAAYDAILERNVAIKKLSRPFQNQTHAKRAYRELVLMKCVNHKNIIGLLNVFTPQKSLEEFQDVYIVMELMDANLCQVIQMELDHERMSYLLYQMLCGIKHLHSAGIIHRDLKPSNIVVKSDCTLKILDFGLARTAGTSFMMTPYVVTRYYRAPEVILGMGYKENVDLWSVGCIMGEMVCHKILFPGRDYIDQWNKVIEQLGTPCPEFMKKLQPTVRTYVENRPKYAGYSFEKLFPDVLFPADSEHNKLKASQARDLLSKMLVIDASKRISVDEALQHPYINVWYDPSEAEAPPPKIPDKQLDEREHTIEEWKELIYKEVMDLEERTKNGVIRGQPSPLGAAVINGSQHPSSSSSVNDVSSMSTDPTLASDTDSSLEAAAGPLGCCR

Compound | pIC50 [1] | pIC50 [2]
CC[C@@H](CO)NC(=O)c1cccc(C(=O)NCc2ccc3nc(N)sc3c2)n1 [Compound 9] | 7.01 to 8.40 | 
CC(C)[C@H](CO)NC(=O)c1cccc(C(=O)NCc2ccc3nc(N)sc3c2)n1 [Compound 50] | 6.02 to 6.99 | 
Nc1nc2ccc(CNC(=O)c3cccc(C(=O)N4CCC(c5cccc(O)c5)C(O)C4)n3)cc2s1 (centres unmarked) [Compound 31] | < 6.00 | 
C[C@H](CO)NC(=O)c1cc(-c2cccs2)cc(C(=O)NCc2ccc(S(C)(=O)=O)cc2)n1 [Compound 417] | < 6.00 and 5.00 to 5.99 | 
CCOC(=O)N1CCC(NC(=O)c2cccc(Nc3cccnc3)n2)CC1 [Compound 388] | < 6.00 | 
Cc1cc(C)n(-c2cccc(C(=O)NCc3ccc(S(C)(=O)=O)cc3)n2)n1 [Compound 320] | < 6.00 and 5.00 to 5.99 | 
CCOC(=O)N1CCC(NC(=O)c2cccc(C(=O)NCCO)n2)CC1 [Compound 40] | < 6.00 | 
CCOC(=O)c1cccc(C(=O)NCc2ccc3nc(N)sc3c2)n1 [Compound 62] | < 6.00 | 
CC(C)NC(=O)c1cccc(C(=O)NCc2ccc(N)nc2)n1 [Compound 113] | 6.02 to 6.99 | 
CC(C)NC(=O)c1cccc(C(=O)NCc2ccc(S(N)(=O)=O)cc2)n1 [Compound 98] | 6.02 to 6.99 | 
CC(C)NC(=O)c1cccc(C(=O)N[C@@H](C)c2ccc(O)cc2)n1 [Compound 124] | 6.02 to 6.99 | 
Nc1nc2ccc(CNC(=O)c3cccc(C(=O)N4CCCCC4CO)n3)cc2s1 (centres unmarked) [Compound 36] | < 6.00 | 
CCOC(=O)N1CCC(NC(=O)c2cccc(C(=O)NCC(C)C)n2)CC1 [Compound 41] | < 6.00 | 
CN(C)C(=O)c1cccc(C(=O)NCc2ccc3nc(N)sc3c2)n1 [Compound 13] | < 6.00 | 
CCOC(=O)N1CCC(NC(=O)c2cccc(Nc3ccccn3)n2)CC1 [Compound 396] | < 6.00 | 
CC(CO)NC(=O)c1cccc(C(=O)NCc2ccc3nc(N)sc3c2)n1 (centres unmarked) [Compound 18] | 6.02 to 6.99 | 
CC(C)NC(=O)c1cccc(C(=O)NCc2ccc(-c3ccc(C#N)cc3)cc2)n1 [Compound 195] | 6.02 to 6.99 | 
COc1cccc(-c2cccc(C(=O)NCc3ccc(S(C)(=O)=O)cc3)n2)c1F [Compound 330] | 6.02 to 6.99 | 
COc1ccc(CNC(=O)c2cccc(C(=O)NC(C)C)n2)cc1OC [Compound 111] | 6.02 to 6.99 | 

Compound | pIC50 [1] | pIC50 [2]
Nc1nc2ccc(CNC(=O)c3cccc(C(=O)NC[C@H](O)c4ccccc4)n3)cc2s1 [Compound 25] | 6.02 to 6.99 | 
CC(C)NC(=O)c1cccc(C(=O)NCc2ccc(-c3cccc(S(C)(=O)=O)c3)cc2)n1 [Compound 193] | 7.01 to 8.40 | 
CC(C)NC(=O)c1cccc(C(=O)NCc2cnn(-c3ccc(S(=O)(=O)N4CCN(C(=O)OC(C)(C)C)CC4)c(Cl)c3)c2)n1 [Compound 247] | 7.01 to 8.40 | 
CC(=O)N1CCC(NC(=O)c2cccc(C(=O)NCc3ccc4nc(N)sc4c3)n2)CC1 [Compound 28] | 6.02 to 6.99 | 
CC[C@@H](C)NC(=O)c1cccc(C(=O)NCc2ccc3nc(N)sc3c2)n1 [Compound 8] | 7.01 to 8.40 | 
CC(C)NC(=O)c1cccc(C(=O)NCc2ccn(-c3ccc(S(C)(=O)=O)cc3)n2)n1 [Compound 309] | 6.02 to 6.99 | 
Nc1nc2ccc(CNC(=O)c3cccc(C(=O)N4CCCC(O)C4)n3)cc2s1 (centres unmarked) [Compound 34] | < 6.00 | 
CC(C)NC(=O)c1cccc(-c2nc3ccccc3[nH]2)n1 [Compound 377] | < 6.00 and 5.00 to 5.99 | 
Nc1nc2ccc(CNC(=O)c3cccc(C(=O)NCCCO)n3)cc2s1 [Compound 17] | < 6.00 | 
Cc1ccc(-c2ccc(CNC(=O)c3cccc(C(=O)NC(C)C)n3)cn2)cc1 [Compound 177] | 6.02 to 6.99 | 
CCOC(=O)N1CCC(NC(=O)c2cccc(NC(=O)Cc3ccc4c(c3)OCO4)n2)CC1 [Compound 401] | < 6.00 and 5.00 to 5.99 | 
CC(C)NC(=O)c1cccc(C(=O)NCc2ccc3nc(N)sc3c2)n1 [Compound 5] | 7.01 to 8.40 | 
CNc1nc2ccc(CNC(=O)c3cccc(C(=O)NC(C)C)n3)cc2s1 [Compound 200] | 7.01 to 8.40 | 
Cc1cc(CNC(=O)c2cccc(C(=O)NC(C)C)n2)nn1C [Compound 103] | 5.00 to 5.99 and < 6.00 | 
CC(C)NC(=O)c1cccc(C(=O)NCC2CCN(c3ccc(S(C)(=O)=O)cc3)CC2)n1 [Compound 422] | < 6.00 and 5.00 to 5.99 | 
CS(=O)(=O)c1ccc(CNC(=O)c2cccc(C(=O)NC3CCN(S(C)(=O)=O)CC3)n2)cc1 [Compound 58] | < 6.00 | 
COc1ccc(-c2cc(CNC(=O)c3cccc(C(=O)NC(C)C)n3)no2)cc1 [Compound 86] | 7.01 to 8.40 | 
O=C(NCc1nc2ccccc2s1)c1cccc(-c2nc3ccccc3[nH]2)n1 [Compound 378] | 6.02 to 6.99 | 
CNCCNc1nc2ccc(CNC(=O)c3cccc(C(=O)NC(C)C)n3)cc2s1 [Compound 203] | 7.01 to 8.40 | 

The next lines start with the values.

pIC50 [1] | pIC50 [2] | Compound
7.01 to 8.40 |  | CS(=O)(=O)c1ccc(-n2cc(CNC(=O)c3cccc(-n4cc(-c5ccccn5)cn4)n3)cn2)cc1 [Compound 297]
6.02 to 6.99 |  | Nc1nc2ccc(CNC(=O)c3cccc(-n4cccn4)n3)cc2s1 [Compound 264]
< 6.00 and 5.00 to 5.99 |  | CC(C)NC(=O)c1cccc(-n2cc(I)cn2)n1 [Compound 287]
7.72 to 8.40 and 7.01 to 8.40 | 7.89 | CC(C)NC(=O)c1cccc(C(=O)NCc2cnn(-c3ccc4nccnc4c3)c2)n1 [Compound 151]
< 6.00 and 5.00 to 5.99 |  | CS(=O)(=O)c1ccc(CNC(=O)c2cccc(-n3ccc(C(F)(F)F)n3)n2)cc1 [Compound 315]
6.02 to 6.99 |  | CS(=O)(=O)c1ccc(CNC(=O)c2cccc(-n3cc(-c4ccccn4)cn3)n2)cc1 [Compound 334]
7.72 to 8.40 and 7.01 to 8.40 |  | CC(C)NC(=O)c1cccc(C(=O)NCc2cnn(-c3ccc4nc(C(C)C)n(C)c4c3)c2)n1 [Compound 235]
6.02 to 6.99 |  | O=C(NCc1cnn(-c2ccccc2)c1)c1cccc(-n2cc(I)cn2)n1 [Compound 291]
7.01 to 8.40 |  | CC(C)NC(=O)c1cccc(C(=O)NCc2cnn(-c3cc(Br)cc(C#N)c3)c2)n1 [Compound 155]
< 6.00 |  | O=C(NCc1cnn(-c2cccc(C(F)(F)F)c2)c1)c1cccc(N2Cc3ccccc3C2)n1 [Compound 344]
7.72 to 8.40 and 7.01 to 8.40 |  | CC(C)NC(=O)c1cccc(C(=O)NCc2cnn(-c3ccc4nc(C(F)(F)F)n(C)c4c3)c2)n1 [Compound 234]
6.02 to 6.99 |  | Cc1cccc(-n2cc(CNC(=O)c3nc(C(=O)NC(C)C)ccc3F)cn2)c1 [Compound 429]
5.00 to 5.99 and < 6.00 |  | O=C(NCc1cnn(-c2cccc(C(F)(F)F)c2)c1)c1cccc(N2CCCC2)n1 [Compound 343]
< 6.00 and 5.00 to 5.99 |  | CCOC(=O)c1cnn(-c2cccc(C(=O)NCc3ccc(S(C)(=O)=O)cc3)n2)c1 [Compound 319]
7.01 to 8.40 |  | Cc1cccc(-n2cc(CNC(=O)c3ccc(F)c(C(=O)NC(C)C)n3)cn2)c1 [Compound 428]
< 6.00 and 5.00 to 5.99 |  | CC(C)C(=O)N(C)c1cccc(C(=O)NCc2cnn(-c3cccc(C(F)(F)F)c3)c2)n1 [Compound 365]
7.01 to 8.40 and 7.72 to 8.40 | 8.15 | CC(C)NC(=O)c1cccc(C(=O)NCc2cnn(-c3ccc(S(N)(=O)=O)cc3)c2)n1 [Compound 241]
6.02 to 6.99 |  | CC(C)NC(=O)c1cccc(C(=O)NCc2ccc(-n3cccn3)cc2)n1 [Compound 109]
6.02 to 6.99 |  | CC(C)NC(=O)c1cccc(C(=O)NCc2cnn(-c3ccncc3)c2)n1 [Compound 159]
7.72 to 8.40 and 7.01 to 8.40 |  | Cc1ccc(-n2cc(CNC(=O)c3cccc(C(=O)NC(C)C)n3)cn2)cc1 [Compound 130]
7.72 to 8.40 and 7.01 to 8.40 | 8.00 | CS(=O)(=O)c1ccc(-n2cc(CNC(=O)c3cccc(C(=O)NC4CCC4)n3)cn2)cc1 [Compound 76]
